# Measured values from patent publication US20250171430A1, “PYRAZOLYL COMPOUNDS AS KV7 CHANNEL ACTIVATORS” (Biohaven Therapeutics Ltd., priority 2022, published 2025).
# Molecular target: T1, Kv7.2/7.3 (Homo sapiens, UniProt O43525+O43526)
# T1 construct: Kv7.2 tetracycline-induced, Kv7.3 constitutive
# Test: Kv7.2/7.3 Activation Assay (Thallium Flux Assay)
# Format: cell-based
# Conditions: hKV7.2/7.3 cell line; test compound at single concentration of 10 μM; fluorescence at 90 sec normalized to positive control (retigabine, 30 μM)
# Procedure, shortened: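 Single-point activity at 10 μM (0.1% DMSO, HEPES-buffered saline, pH 7.4) was scored from fluorescence at 90 s relative to 30 μM retigabine. Categories were none <0.15, moderate 0.15-0.7 and high >0.7. Thallium influx after stimulus addition was followed with FluxOR II Green dye in hKv7.2/7.3 cells, Kv7.2 expressed under overnight tetracycline (10 ng/mL) induction.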
row,Compound,Kv7.2/7.3 Activity
1,"Cn1nc(NC(=O)C[C@H]2CC(F)(F)C2(F)F)c(C2CCC2)c1C1CCCCC1 [Compound 67, (S)-N-(4-cyclobutyl-5-cyclohexyl-1-methyl-1H-pyrazol-3-yl)-2-(2,2,3,3-tetrafluorocyclobutyl)acetamide]",+ (“+” Moderate Activity 0.15-0.7)
2,"Cn1nc(NC(=O)CC(C)(C)C(F)(F)F)c(C2CCC2)c1C1CCCCC1 [Compound 68, N-(4-cyclobutyl-5-cyclohexyl-1-methyl-1H-pyrazol-3-yl)-4,4,4-trifluoro-3,3-dimethylbutanamide]",++ (“++” High Activity ≥ 0.7)
3,"Cn1nc(NC(=O)CC2(C(F)(F)F)CC2)c(C2CCC2)c1C1CCCCC1 [Compound 69, N-(4-cyclobutyl-5-cyclohexyl-1-methyl-1H-pyrazol-3-yl)-2-(1-(trifluoromethyl)cyclopropyl)acetamide]",+ (“+” Moderate Activity 0.15-0.7)
4,"Cn1nc(NC(=O)CC2CC(F)(F)C2)c(C2CCC2)c1C1CCCCC1 [Compound 70, N-(4-cyclobutyl-5-cyclohexyl-1-methyl-1H-pyrazol-3-yl)-2-(3,3-difluorocyclobutyl)acetamide]",++ (“++” High Activity ≥ 0.7)
5,"Cn1nc(NC(=O)CC2(O)CCCC2)c(C2CCC2)c1-c1ccc(OC(F)(F)F)cc1 [Compound 71, N-(4-cyclobutyl-1-methyl-5-(4-(trifluoromethoxy)phenyl)-1H-pyrazol-3-yl)-2-(1-hydroxycyclopentyl)acetamide]",++ (“++” High Activity ≥ 0.7)
6,"Cn1nc(NC(=O)CC2CC(F)(F)C2)c(C2CCC2)c1-c1ccc(OC(F)(F)F)cc1 [Compound 72, N-(4-cyclobutyl-1-methyl-5-(4-(trifluoromethoxy)phenyl)-1H-pyrazol-3-yl)-2-(3,3-difluorocyclobutyl)acetamide]",++ (“++” High Activity ≥ 0.7)
7,"Cn1nc(NC(=O)CC2(O)CCCC2)c(C2CCC2)c1-c1ccc(F)cc1 [Compound 73, N-(4-cyclobutyl-5-(4-fluorophenyl)-1-methyl-1H-pyrazol-3-yl)-2-(1-hydroxycyclopentyl)acetamide]",++ (“++” High Activity ≥ 0.7)
8,"Cn1nc(NC(=O)CC2CC(F)(F)C2)c(C2CCC2)c1-c1ccc(F)cc1 [Compound 74, N-(4-cyclobutyl-5-(4-fluorophenyl)-1-methyl-1H-pyrazol-3-yl)-2-(3,3-difluorocyclobutyl)acetamide]",++ (“++” High Activity ≥ 0.7)
9,"CCOC(=O)Nc1nn(C)c(-c2ccc(F)cc2)c1C1CCC1 [Compound 75, ethyl (4-cyclobutyl-5-(4-fluorophenyl)-1-methyl-1H-pyrazol-3-yl)carbamate]",+ (“+” Moderate Activity 0.15-0.7)
10,"O=C(CC1(C(F)(F)F)CC1)Nc1nn(CCO)c(Cc2ccccc2)c1C1CCC1 [Compound 76, N-(5-benzyl-4-cyclobutyl-1-(2-hydroxyethyl)-1H-pyrazol-3-yl)-2-(1-(trifluoromethyl)cyclopropyl)acetamide]",++ (“++” High Activity ≥ 0.7)
11,"Cn1nc(NC(=O)CC2(C(F)(F)F)CC2)c(C2CCC2)c1CC1CC1 [Compound 79, N-(4-cyclobutyl-5-(cyclopropylmethyl)-1-methyl-1H-pyrazol-3-yl)-2-(1-(trifluoromethyl)cyclopropyl)acetamide]",++ (“++” High Activity ≥ 0.7)
12,"Cn1nc(NC(=O)CC2CC(F)(F)C2)c(C2CCC2)c1CC1CC1 [Compound 80, N-(4-cyclobutyl-5-(cyclopropylmethyl)-1-methyl-1H-pyrazol-3-yl)-2-(3,3-difluorocyclobutyl)acetamide]",++ (“++” High Activity ≥ 0.7)
13,"Cn1nc(NC(=O)CC2(O)CCCC2)c(C2CCC2)c1CC1CC1 [Compound 81, N-(4-cyclobutyl-5-(cyclopropylmethyl)-1-methyl-1H-pyrazol-3-yl)-2-(1-hydroxycyclopentyl)acetamide]",+ (“+” Moderate Activity 0.15-0.7)
14,"Cn1nc(NC(=O)CC2(C(F)(F)F)CCC2)c(C2CCC2)c1-c1ccc(OC(F)(F)F)cc1 [Compound 82, N-(4-cyclobutyl-1-methyl-5-(4-(trifluoromethoxy)phenyl)-1H-pyrazol-3-yl)-2-(1-(trifluoromethyl)cyclobutyl)acetamide]",++ (“++” High Activity ≥ 0.7)
15,"Cn1nc(NC(=O)CC2(C(F)(F)F)CCC2)c(C2CCC2)c1-c1ccc(F)cc1 [Compound 83, N-(4-cyclobutyl-5-(4-fluorophenyl)-1-methyl-1H-pyrazol-3-yl)-2-(1-(trifluoromethyl)cyclobutyl)acetamide]",++ (“++” High Activity ≥ 0.7)
16,"Cn1nc(NC(=O)CC2COC2)c(C2CCC2)c1-c1ccc(OC(F)(F)F)cc1 [Compound 84, N-(4-cyclobutyl-1-methyl-5-(4-(trifluoromethoxy)phenyl)-1H-pyrazol-3-yl)-2-(oxetan-3-yl)acetamide]",− (“−” No Activity < 0.15)

row,Compound,Kv7.2/7.3 Activity
1,"Cn1nc(NC(=O)CC2COC2)c(C2CCC2)c1-c1ccc(F)cc1 [Compound 85, N-(4-cyclobutyl-5-(4-fluorophenyl)-1-methyl-1H-pyrazol-3-yl)-2-(oxetan-3-yl)acetamide]",− (“−” No Activity < 0.15)
2,"Cn1nc(NC(=O)CC2COC2)c(C2CCC2)c1-c1cnc(C(F)(F)F)s1 [Compound 86, N-(4-cyclobutyl-1-methyl-5-(2-(trifluoromethyl)thiazol-5-yl)-1H-pyrazol-3-yl)-2-(oxetan-3-yl)acetamide]",− (“−” No Activity < 0.15)
3,"Cn1nc(NC(=O)CC2(O)CCC2)c(C2CCC2)c1-c1ccc(OC(F)(F)F)cc1 [Compound 87, N-(4-cyclobutyl-1-methyl-5-(4-(trifluoromethoxy)phenyl)-1H-pyrazol-3-yl)-2-(1-hydroxycyclobutyl)acetamide]",+ (“+” Moderate Activity 0.15-0.7)
4,"Cn1nc(NC(=O)CC2(C(F)(F)F)CCC2)c(C2CCC2)c1C1(C(F)(F)F)CCC1 [Compound 88, N-(4-cyclobutyl-1-methyl-5-(1-(trifluoromethyl)cyclobutyl)-1H-pyrazol-3-yl)-2-(1-(trifluoromethyl)cyclobutyl)acetamide]",++ (“++” High Activity ≥ 0.7)
5,"Cn1nc(NC(=O)CC2(C(F)(F)F)CC2)c(C2CCC2)c1C1(C(F)(F)F)CCC1 [Compound 89, N-(4-cyclobutyl-1-methyl-5-(1-(trifluoromethyl)cyclobutyl)-1H-pyrazol-3-yl)-2-(1-(trifluoromethyl)cyclopropyl)acetamide]",++ (“++” High Activity ≥ 0.7)
6,"Cn1nc(NC(=O)Cc2ccc(F)c(F)c2)c(C2CCC2)c1C1(C(F)(F)F)CCC1 [Compound 90, N-(4-cyclobutyl-1-methyl-5-(1-(trifluoromethyl)cyclobutyl)-1H-pyrazol-3-yl)-2-(3,4-difluorophenyl)acetamide]",+ (“+” Moderate Activity 0.15-0.7)
7,"Cn1nc(NC(=O)Cc2ccc(F)c(F)c2)c(C2CCC2)c1-c1ccc(F)cc1 [Compound 91, N-(4-cyclobutyl-5-(4-fluorophenyl)-1-methyl-1H-pyrazol-3-yl)-2-(3,4-difluorophenyl)acetamide]",+ (“+” Moderate Activity 0.15-0.7)
8,"Cn1nc(NC(=O)Cc2ccc(F)c(F)c2)c(C2CCC2)c1-c1ccc(OC(F)(F)F)cc1 [Compound 92, N-(4-cyclobutyl-1-methyl-5-(4-(trifluoromethoxy)phenyl)-1H-pyrazol-3-yl)-2-(3,4-difluorophenyl)acetamide]",++ (“++” High Activity ≥ 0.7)
9,"Cc1c(C2CCC2)c(NC(=O)CC2CC(F)(F)C2)nn1Cc1ccc(F)cc1 [Compound 93, N-(4-cyclobutyl-1-(4-fluorobenzyl)-5-methyl-1H-pyrazol-3-yl)-2-(3,3-difluorocyclobutyl)acetamide]",+ (“+” Moderate Activity 0.15-0.7)
10,"Cc1c(C2CCC2)c(NC(=O)CC(C)(C)C(F)(F)F)nn1Cc1ccc(F)cc1 [Compound 94, N-(4-cyclobutyl-1-(4-fluorobenzyl)-5-methyl-1H-pyrazol-3-yl)-4,4,4-trifluoro-3,3-dimethylbutanamide]",− (“−” No Activity < 0.15)
11,"Cc1c(C2CCC2)c(NC(=O)CC2(C(F)(F)F)CC2)nn1Cc1ccc(F)cc1 [Compound 95, N-(4-cyclobutyl-1-(4-fluorobenzyl)-5-methyl-1H-pyrazol-3-yl)-2-(1-(trifluoromethyl)cyclopropyl)acetamide]",− (“−” No Activity < 0.15)
12,"Cn1nc(NC(=O)CC(C)(C)C(F)(F)F)c(C2CCC2)c1-c1ccc(Cl)s1 [Compound 96, N-(5-(5-chlorothiophen-2-yl)-4-cyclobutyl-1-methyl-1H-pyrazol-3-yl)-4,4,4-trifluoro-3,3-dimethylbutanamide]",++ (“++” High Activity ≥ 0.7)
13,"Cn1nc(NC(=O)CC(C)(C)C(F)(F)F)c(C2CCC2)c1-c1ccc(F)cc1F [Compound 97, N-(4-cyclobutyl-5-(2,4-difluorophenyl)-1-methyl-1H-pyrazol-3-yl)-4,4,4-trifluoro-3,3-dimethylbutanamide]",++ (“++” High Activity ≥ 0.7)
14,"Cn1nc(NC(=O)CC2CC(F)(F)C2)c(C2CCC2)c1-c1ccc(F)cc1F [Compound 98, N-(4-cyclobutyl-5-(2,4-difluorophenyl)-1-methyl-1H-pyrazol-3-yl)-2-(3,3-difluorocyclobutyl)acetamide]",++ (“++” High Activity ≥ 0.7)
15,"Cn1nc(NC(=O)C[C@H]2CC2(F)F)c(C2CCC2)c1-c1ccc(F)cc1 [Compound 99, (S)-N-(4-cyclobutyl-5-(4-fluorophenyl)-1-methyl-1H-pyrazol-3-yl)-2-(2,2-difluorocyclopropyl)acetamide]",++ (“++” High Activity ≥ 0.7)
16,"Cn1nc(NC(=O)C[C@H]2CC2(C)C)c(C2CCC2)c1-c1ccc(F)cc1 [Compound 100, (R)-N-(4-cyclobutyl-5-(4-fluorophenyl)-1-methyl-1H-pyrazol-3-yl)-2-(2,2-dimethylcyclopropyl)acetamide]",++ (“++” High Activity ≥ 0.7)
